US12564580B2, “Mitochondria-targeted isoketal/isolevuglandin scavengers and uses thereof” (Vanderbilt University, priority 2020, dated 2026)

Test: Water solubility
Format: physicochemical
Description: Mito2HOBA is a water-soluble compound which can be supplied in the media and provided to animals in the drinking water.

**Q.** Which water solubility does the source give for NCc1ccc(OCCCC[P+](c2ccccc2)(c2ccccc2)c2ccccc2)cc1O [mito2HOBA] here?
**A.** The water solubility was “water-soluble”.
